Common to all, as to format: cell-based
For assay [1], the system named is human keratinocytes. Briefly: DNA synthesis in keratinocytes (3H-thymidine incorporation, keratinocyte proliferation). The source says:
The incorporation of ^3 H-thymidine by cultured keratinocytes was used as an assay of keratinocyte proliferation. Thymidine is one of four deoxynucleosides which are the monomeric units of DNA, the universal library of genetic information in the animal kingdom. Prior to cell division of a somatic cell such as a keratinocyte, the complete genome of the cell undergoing cell division is replicated. This involves large scale DNA synthesis by the cell and enables both daughter cells to receive identical copies of the genetic material. When ^3 H-thymidine is included in the culture media of keratinocytes which are synthesizing DNA in preparation for cell division then the labelled nucleoside is incorporated into the newly synthesized DNA. The extent of incorporation of ^3 H-thymidine into a population of cells is proportional to the rate of DNA synthesis by this population of cells and therefore an indication of their cellular proliferation.
1. Normal human keratinocytes isolated from neonatal foreskins by trypsin treatment were grown in DME medium/5% fetal calf serum in the presence of mitomycin C treated 3T3 mouse fibroblasts for establishing dividing keratinocyte colonies. Keratinocytes were grown under the above condition until their third passage.
2. For the experiments, third passage keratinocytes were plated into a serum-free keratinocyte growth medium (KGM; obtained from Clonetics, San Diego, Calif.) containing 0.09 mM calcium. 20,000 to 30,000 cells were plated into each well of 24 well cell culture plates and grown for 5 days, until the cells reach about 80% confluence.
3. Medium was changed to fresh medium and the various test materials were added to the medium from an ethanolic stock solution. The final ethanol concentration in the cultures was kept below 0.2%. Control cultures received no tested material but were dosed with 0.2% ethanol. Each compound or combination was tested in three separate wells. In four hours, 1 uCi of ^3 H-thymidine (Amersham Corp., Sp activity 40 Ci/mmol) was added to the 1 ml medium in each well. The cells were incubated overnight and 24 hours later the amount of ^3 H-thymidine associated with the cellular DNA of keratinocytes was assessed as described below.
4. The medium was aspirated, and the wells washed with 1 ml phosphate-buffered saline. The DNA and proteins of the cells in the plate were then precipitated by adding 1 ml of ice-cold 10% trichloroacetic acid (TCA). The plates were left on ice for 30 minutes to complete the precipitation process. TCA was then aspirated and each well was then washed four times with 5% TCA. The plates were then dried on a filter pad and the cells in the wells were dissolved in 0.5 ml of 0.1N sodium hydroxide. The sodium hydroxide was then neutralized using 0.1N hydrochloric acid and the solution (1 ml total volume) was then transferred to a scintillation vial. 50 μl samples from each vial were used for protein assay using BCA protein assay reagent obtained from Pierce Chemical Company. 8 ml of a scintillation fluid (Ecolume) was added to the rest of the solution in the vial, and the vials were counted in a scintillation counter to determine the amount of radioactivity in each vial. The DNA synthesis rate was then calculated as cpm ^3 H thymidine incorporated into total cellular DNA/microgram of cell protein for each individual well.
(In general: Incorporation of labelled thymidine or its analogues reports DNA synthesis.)

The test system of assay [2] is human keratinocytes. The assay can be described thus: Cornified envelope (CE) formation, marker of terminal differentiation of keratinocytes. As to the method: (§1) Human keratinocytes, isolated from neonatal foreskin by trypsin treatment were grown in Dulbecco Modification Eagle (DME) Hams F12 (3:1) medium/5% fetal calf serum in the presence of mitomycin C treated 3T3 mouse fibroblasts for establishing dividing keratinocyte colonies. Cells were grown under the above condition until their second passage and kept frozen for future use. Frozen second passage keratinocytes were thawed and plated into the above medium and grown for five days. On day 5, when the cells were 70-80% confluent, they were trypsinized and plated in the serum-free medium for the various experiments.
During the process of terminal differentiation in the epidermis, a 15 nm thick layer of protein, known as the cornified envelope (CE)is formed on the inner surface of the cell periphery. The CE is composed of numerous distinct proteins which have been cross-linked together by the formation of N ^ε -(-γ-glutamyl) lysine isodipeptide bonds catalyzed by the action of at least two different transglutaminases expressed in the epidermis. Transglutaminase (TG-1) is expressed in abundance in the differentiated layers of the epidermis, especially the granular layer, but is absent in the undifferentiated basal epidermis. Thus, TG-1 is a useful marker of epidermal keratinocyte differentiation with high TG-1 levels indicating a more differentiated state. An ELISA based TG-1 assay, using a TG-1 antibody, was used to assess the state of differentiation of the cultured keratinocytes in the examples that follow.
Proper skin conditioning require enhanced proliferation and differentiation of epidermal keratinocytes. The different citrate esters were tested on their effect on cornified envelope (CE) formation, a marker of terminal differentiation of keratinocytes. Citrate esters were tested at 1 mM levels in medium containing 0.15 mM Ca. Levels are expressed as % of control ±SD. The CE formation for the control was 54.48 ±31.8 cpm/μg cell protein.

The subject of assay [3] is human keratinocytes. Briefly: 3H choline incorporation into phospholipids of keratinocytes. As to the method: as §1
Choline acts as an essential nutrient for the cellular phospholipid biosynthesis of keratinocytes. Choline present in the medium is used up by the cells for phospholipid biosynthesis. If TCC provides choline for the cells it will complete with the choline in the medium for incorporation into cellular phospholipids. When cells are incubated with ^3 H-labelled choline, its incorporation into phospholipids will be decreased by the presence of unlabelled choline or TCC in the medium.
[…] The wells were washed, total lipids were extracted using Bleigh Dyer method as described above and the total counts in the chloroform phase was determined. To ascertain that the counts are present only in the phospholipid fraction, the amount of ^3 H choline incorporated into the different lipid fractions were quantitated by running TLC of the fractions in the above solvent system, and the amount of radioactivity in the phospholipid fraction (origin) was quantitated using BioScan plate reader. The cpm of ^3 H choline was plotted against the amount of cold choline or TCC added in the medium to assess the competition between choline supplied from TCC with ^3 H choline.
The amount of ^3 H choline incorporated into cellular phospholipids was determined and expressed as % of controls.

The mark [4] stands for this setting: Homo sapiens, Keratinocyte, 24 h, read-out: Rate of DNA synthesis.
Where [5] appears, read: Homo sapiens, Keratinocyte, 48 h, read-out: 3H choline incorporated into cellular phospholipids.

Turning to `O=C(O)CC(O)(CC(=O)O)C(=O)O` [Citric acid, citric acid], in assay [1] (setting [4]), the activity at 0.1 µM came to 88.4 ± 15.5%, the activity at 1 µM was 74.5 ± 32.2%, the activity at 10 µM came out at 89.9 ± 20.3% and the activity at 100 µM stood at 88.7 ± 5.1%. In assay [1] (setting [4]), the activity at 1000 µM was found to be 63.9 ± 11.8% and the activity at 10000 µM was found to be 4.25 ± 2.2%. The “keratinocyte proliferation, result in words” value in assay [1] (summary in Example 2) is “inhibit both proliferation and differentiation of keratinocytes”. In addition, the “cornified envelope formation / keratinocyte differentiation, result in words” value in assay [2] (1 mM, 0.15 mM Ca) is “inhibited cornified envelope formation significantly”. Moreover, the activity at 1000 µM in assay [2] (Homo sapiens, Keratinocyte, read-out: CE Levels) was found to be 13.7 ± 1.1%. The “keratinocyte differentiation, result in words” value in assay [2] (summary of Example 2) is “inhibit both proliferation and differentiation of keratinocytes”. Also, the “choline incorporation into phospholipid fraction, result in words” value in assay [3] (48 hours) is “no significant effect on choline incorporation into phospholipid fraction”. Besides, in assay [3] (setting [5]), the activity at 10 µM worked out at 91.4 ± 12.7%, the activity at 100 µM amounted to 77.5 ± 19.5% and the activity at 1000 µM amounted to 74.1 ± 28.8%.

For the origin of these results see patent US5571518A, “Cosmetic compositions containing tricholine citrate” (priority 1995, dated 1996).
